Reference: US4062950A, “Amino sugar derivatives” (priority 1973, dated 1977)

Molecular target: T1, saccharase (Sus scrofa, UniProt P56729)
T1 construct: sucrase subunit of the sucrase-isomaltase complex hydrolyses sucrose
Assay: In vitro saccharase test
Format: biochemical, pig
Details: isolated isomer, Example 19
Protocol: One saccharase inhibitor unit (SIU) is defined as the amount of inhibitor which inhibits two saccharase units to the extent of 50%. One saccharase unit (SU) is the amount of enzyme which under the test conditions specified splits 1 μmol of sucrose to glucose and fructose per minute. The μmols of glucose formed are determined quantitatively by means of the glucose oxidase reaction under conditions under which a further splitting of the sucrose by the saccharase no longer takes place. To carry out the test, 0.05 ml of solubilized saccharase [from the mucous membrane of the small intestine of the pig, according to B. Borgastrom, A. Dahlquist, Acta Chem. Scand. 12, (1958), page 1,997], diluted with 0.1 M sodium maleate buffer of pH 6.0 to a SU content adjusted to 0.12 SU is mixed with 0-20 μg of inhibitor or 0-20 μl of the solution to be tested and brought up to 0.1 ml with 0.1 M sodium maleate buffer of pH 6.0. The mixture is equilibrated for 10 minutes at 35° C and 0.1 ml of an 0.05 M sucrose solution in 0.1 M sodium maleate buffer of pH 6.0, pre-warmed to 35° C, is then added. The mixture is incubated for 20 minutes at 35° C, the saccharase reaction is stopped by addition of 1 ml of glucose oxidase reagent, and the incubation is continued for a further 30 minutes at 35° C. (The glucose oxidase reagent is prepared by dissolving 2 mg of glucose oxidase, Boehringer, No. 15,423, in 100 ml of 0.565 M tris-HCl buffer of pH 7.0 and subsequently adding 1 ml of detergent solution (2 g of Triton X 100 + 8 g of 95% strength and analytical grade ethanol), 1 ml of dianisidine solution (260 mg of o-dianisidine. 2HCl in 20 ml of H2 O) and 0.5 ml of 0.1% strength aqueous peroxidase solution, Boehringer, No. 15,302). Thereafter, 1 ml of 50% strength H2 SO4 is added and a measurement carried out at 545 nm against a corresponding blank. To evaluate the results, the percentage inhibition of the saccharase employed is calculated and converted to SIU/g of SIU/liter from the 50% inhibition point, using a glucose calibration curve.

T1 sequence (P56729 with tags, fused parts or gaps): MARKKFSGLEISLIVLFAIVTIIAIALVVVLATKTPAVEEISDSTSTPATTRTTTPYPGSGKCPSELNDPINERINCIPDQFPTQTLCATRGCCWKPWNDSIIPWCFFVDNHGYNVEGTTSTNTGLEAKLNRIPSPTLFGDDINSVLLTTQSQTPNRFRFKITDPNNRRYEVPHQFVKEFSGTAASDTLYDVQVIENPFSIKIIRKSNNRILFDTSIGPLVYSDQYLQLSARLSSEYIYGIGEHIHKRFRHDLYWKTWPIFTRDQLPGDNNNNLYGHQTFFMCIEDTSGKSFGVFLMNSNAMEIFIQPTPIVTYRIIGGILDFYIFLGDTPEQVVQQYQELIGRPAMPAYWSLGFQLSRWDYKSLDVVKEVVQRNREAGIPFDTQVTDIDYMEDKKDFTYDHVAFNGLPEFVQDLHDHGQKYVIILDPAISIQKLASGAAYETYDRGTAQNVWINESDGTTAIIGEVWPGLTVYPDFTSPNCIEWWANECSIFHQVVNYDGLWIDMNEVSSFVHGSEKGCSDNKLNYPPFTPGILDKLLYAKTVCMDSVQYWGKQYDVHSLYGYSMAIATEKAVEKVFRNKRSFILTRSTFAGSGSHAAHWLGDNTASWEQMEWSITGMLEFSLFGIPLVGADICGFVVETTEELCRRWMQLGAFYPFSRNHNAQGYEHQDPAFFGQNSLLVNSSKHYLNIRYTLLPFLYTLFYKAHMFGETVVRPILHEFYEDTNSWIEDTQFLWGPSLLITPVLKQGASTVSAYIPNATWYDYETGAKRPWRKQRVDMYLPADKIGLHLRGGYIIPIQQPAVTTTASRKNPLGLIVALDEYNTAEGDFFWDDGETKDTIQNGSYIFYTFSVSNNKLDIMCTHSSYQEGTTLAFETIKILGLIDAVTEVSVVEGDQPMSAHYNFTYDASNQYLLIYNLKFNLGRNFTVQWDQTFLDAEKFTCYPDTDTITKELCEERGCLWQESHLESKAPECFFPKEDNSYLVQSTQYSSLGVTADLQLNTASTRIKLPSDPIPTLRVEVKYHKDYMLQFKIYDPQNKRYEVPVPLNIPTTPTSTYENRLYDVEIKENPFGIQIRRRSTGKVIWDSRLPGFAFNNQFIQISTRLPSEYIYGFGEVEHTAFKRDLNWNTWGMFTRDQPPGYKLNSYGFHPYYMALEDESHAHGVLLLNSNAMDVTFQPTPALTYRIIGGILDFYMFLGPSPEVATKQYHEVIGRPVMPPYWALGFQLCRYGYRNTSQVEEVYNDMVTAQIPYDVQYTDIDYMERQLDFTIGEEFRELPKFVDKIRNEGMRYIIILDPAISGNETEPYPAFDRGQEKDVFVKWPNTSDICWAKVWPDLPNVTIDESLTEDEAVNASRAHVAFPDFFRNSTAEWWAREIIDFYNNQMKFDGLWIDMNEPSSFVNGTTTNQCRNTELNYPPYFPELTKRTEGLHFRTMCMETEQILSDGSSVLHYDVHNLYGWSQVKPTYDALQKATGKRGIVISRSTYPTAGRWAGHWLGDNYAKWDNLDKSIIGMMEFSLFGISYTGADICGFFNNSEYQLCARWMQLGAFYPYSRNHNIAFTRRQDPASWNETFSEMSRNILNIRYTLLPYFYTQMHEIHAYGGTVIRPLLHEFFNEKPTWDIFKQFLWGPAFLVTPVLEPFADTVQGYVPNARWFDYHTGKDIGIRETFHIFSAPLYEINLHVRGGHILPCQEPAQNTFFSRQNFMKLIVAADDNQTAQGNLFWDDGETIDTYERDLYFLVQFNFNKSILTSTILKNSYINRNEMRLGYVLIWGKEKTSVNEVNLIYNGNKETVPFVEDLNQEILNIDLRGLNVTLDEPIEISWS

**Q.** For `C[C@H]1O[C@H](O[C@H]2[C@H](O)[C@@H](O)[C@@H](O[C@H]3[C@H](O)[C@@H](O)[C@@H](O[C@H]4[C@H](O)[C@@H](O)C(O)O[C@@H]4CO)O[C@@H]3CO)O[C@@H]2CO)[C@H](O)[C@@H](O)[C@@H]1N[C@H]1C=C(CO)[C@@H](O)[C@H](O)[C@H]1O` (stereo partly drawn) [Formula IV, O-{4,6-bisdesoxy-4-[1S-(1,4,6/5)-4,5,6-trihydroxy-3-hydroxymethylcyclohex-2-en-1-ylamino]-α-D-glucopyranosyl}-(1→4)-O-α-D-glucopyranosyl-(1→4)-O-α-D-glucopyranosyl-(1→4)-D-glycopyranose], which in vitro saccharase inhibiting activity is on record?
**A.** The in vitro saccharase inhibiting activity was 19000 SIU/g.
